Data reported in PubChem BioAssay (NCI).
Where “and” joins values, the source holds several entries; their conditions need not be identical. Equal entries are not always repeated.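 Each compound was tested at five concentrations against cells in 96-well plates for 48 hours. GI50 = concentration required for 50% inhibition of growth. TGI: concentration producing complete growth inhibition.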

Experiments:
Assay in all cases: inhibition of tumour cell growth, NCI panel, 48 h
[1] = system: IGROV1 ovarian
[2] = system: K-562 leukemia
[3] = system: NCI-H460 lung
[4] = system: OVCAR-3 ovarian
[5] = system: OVCAR-8 ovarian
[6] = system: SK-MEL-28 melanoma
[7] = system: MCF7 breast
[8] = system: PC-3 prostate
[9] = system: U251 CNS
[10] = system: NCI-H522 lung

SMILES	TGI [1] [µM]	TGI [2] [µM]	TGI [3] [µM]	TGI [4]	TGI [5] [µM]	TGI [6] [µM]	GI50 [1] [µM]	GI50 [2] [µM]	GI50 [7] [µM]	TGI [7]	GI50 [3]	GI50 [4] [µM]	GI50 [5] [µM]	GI50 [8] [µM]	TGI [8] [µM]	GI50 [6]	GI50 [9] [µM]	TGI [9] [µM]	TGI [10]	GI50 [10] [µM]
CC(=O)Nc1ccc(/C=N\N2C(=O)c3ccccc3C2=O)cc1	> 100	> 100	> 100	> 100 µM	> 100	> 100														
C[C@]12CC[C@@H]3c4ccc(O)cc4CC[C@H]3[C@@H]1CC[C@@H]2NS(=O)(=O)c1cccc(C(F)(F)F)c1	18	15.3	6.79	8.6 µM	19.3	19.1	5.19	3.63	2.72	8.49 µM	2.6 µM	2.95	4.65	2.78	13.9	5.87 µM	3.75	14.3		
NNC(=O)CCC(=O)Nc1cc(Cl)c(Cl)cc1Cl	> 100	> 100	> 100	> 100 µM	> 100	> 100												> 100	> 100 µM	
C=C1C(=O)OC2C1CC[C@H](C)C13OC(=O)CC1[C@@]23C (stereo not given in full)	> 100	> 100	> 100	> 100 µM	> 100	> 100												> 100	> 100 µM	
N#Cc1c(N)nc(N2CCOCC2)c(C#N)c1-c1ccc(Cl)cc1	46.4	> 100	> 100	> 100 µM	> 100	> 100	14	> 100	23.2	> 100 µM	33.2 µM	27.8	28	16.6	70.1	70.9 µM	38.3	> 100		
CCOC(=O)C1=C(NNC(=O)Cc2ccccc2)CSC1=Nc1ccccc1	> 100	> 100	> 100	> 100 µM	> 100	> 100												> 100	> 100 µM	
CCC(CC)n1cc(C(=O)NC(=O)NCCCCCOC(=O)CCCCCCCCCCC(=O)OCCCCCNC(=O)NC(=O)c2cn(C(CC)CC)c(=O)[nH]c2=O)c(=O)[nH]c1=O	> 100	> 100	> 100	> 100 µM	> 100	> 100												> 100	> 100 µM	
Cc1cccc(NC(=O)c2cc3cc(N=Nc4ccccc4Cl)ccc3oc2=O)c1	> 100	> 100	> 100	> 100 µM	> 100	> 100												> 100	56.8 µM	
N#C/C(=C1\NN=C(N)C(c2ccc(Cl)cc2)=C1O)c1ccc(Cl)cc1	> 100	> 100	> 100	> 100 µM	> 100	> 100												> 100	> 100 µM	
O=c1[nH]nc2ccccc2c1Cl	28.5	24.7	46.2	6.21 µM	54.3													29.2		
COC(C(=O)C(O)C(C)O)C1Cc2cc3cc(OC4CC(OC(C)=O)C(OC5CC(O)C(OC)C(C)O5)C(C)O4)cc(O)c3c(O)c2C(=O)C1OC1CC(OC2CC(OC3CC(C)(O)C(OC(=O)C(C)C)C(C)O3)C(O)C(C)O2)C(O)C(C)O1 (stereo not given)									0.0465	0.327 µM and < 0.215 µM	0.0261 µM and 0.0113 µM and 0.00305 µM					0.000911 µM and 0.00146 µM				0.000196
Nc1ccn(CCO)c(=O)n1	> 100	> 100	> 100	> 100 µM	> 100	> 100												> 100	> 100 µM	
CC1CC(c2cccc3c2OCO3)=Nc2ccccc2S1 (stereo not given)	> 100	> 100	> 100	> 100 µM	> 100	> 100													> 100 µM	
O=C1OC(CC(=O)c2ccc(Cl)cc2Cl)C(Cl)=C1Cl (stereo not given)	> 69.9	> 76.7	> 100	> 100 µM	> 60.2	37.2												> 72.8	34.7 µM	
CC1CC2C(=O)N(c3ccccc3)C(=O)C2c2c1c1ccccc1n2Cc1ccccc1 (stereo not given)	> 100	> 100	> 100	> 100 µM	> 100														92.3 µM	
Cc1nn(-c2ccccc2)c2c1CC(=O)Nc1ccccc1-2	> 100	0.721	> 100	2.92 µM and 0.552 µM		> 100	0.397	0.044	0.0788	> 100 µM	0.381 µM	0.0805		0.279		0.357 µM	0.282	> 100	3.75 µM and 0.593 µM	0.17
OCC(O)C(OC1OC(CO)C(O)C(O)C1O)c1nn(-c2ccccc2)c2nc3cc(Cl)c(Cl)cc3cc12 (stereo not given)		> 100	> 100	> 100 µM	> 100	> 100												> 100	> 100 µM	
CN(C)c1ccc(-c2cc(-c3ccc(Nc4nc(Nc5ccccc5)nc(Nc5ccc(Cl)cc5)n4)cc3)nc(N)n2)cc1	62	11.4	14.1	28.9 µM	> 100	29.9	2.07	2.61	2.84	15 µM	3.71 µM	5.77	5.24			10.8 µM	5.06	25	38.7 µM	5.8
COc1ccc(-c2cc(-c3ccccc3)nc(N3CCN(CCNc4ccnc5cc(Cl)ccc45)CC3)n2)cc1	3.19		3.78	3.69 µM		2.94	1.48		1.71	3.45 µM	1.92 µM	1.89				1.52 µM	1.56	3.45		
C[C@H]1[C@H](C)CC[C@]2(C(=O)N3CCN(C)CC3)CC[C@]3(C)C(=CC[C@@H]4[C@@]5(C)C/C(=C/c6cccnc6)C(=O)C(C)(C)[C@@H]5CC[C@]43C)[C@H]12	3.31	> 100	2.45	2.36 µM		2.76	1.52	1.67			0.891 µM	0.969		0.541	1.85	1.4 µM	0.547	1.87	1.3 µM	0.328
